# Measured values: the RepoRT retention time repository (doi:10.1016/j.jchromb.2020.122105)
# Key:
# Conditions in all cases: stereoisomer not certain
# [1] = RP, Thermo Scientific Hypercarb, 150 × 2.1 mm, 5 µm, 0.1 mL/min, estimated dead time 3.3 min; A: water + 0.1% formic acid, pH 3; B: methanol + 0.1% formic acid, pH 3; gradient (min/%B) 0/5 5/5 20/100 35/100 35.1/5 45/5
# [2] = RP, Waters ACQUITY UPLC BEH C18, 100 × 2.1 mm, 1.7 µm, 0.1 mL/min, estimated dead time 2.2 min; A: water + 0.1% formic acid, pH 3; B: methanol + 0.1% formic acid, pH 3; gradient (min/%B) 0/5 5/5 25/95 25.1/100 35/100 35.1/5 45/5
# [3] = RP, Waters CORTECS T3, 100 × 2.1 mm, 2.7 µm, 0.2 mL/min, estimated dead time 1.1 min; A: water + 0.1% formic acid, pH 3; B: methanol + 0.1% formic acid, pH 3; gradient (min/%B) 0/0 1/0 6/5 30/100 35/100 35.1/0 40/0
# [4] = HILIC, Waters XBridge BEH Amide, 100 × 2.1 mm, 2.5 µm, 0.5 mL/min, estimated dead time 0.44 min; A: water + 0.1% acetic acid + 10 mM ammonium acetate, pH 4; B: 5% water + 95% acetonitrile + 0.1% acetic acid + 10 mM ammonium acetate, pH 4; gradient (min/%B) 0/95 5/95 20/57 25/57 30/95 40/95
# [5] = RP, Waters CORTECS T3, 100 × 2.1 mm, 2.7 µm, 0.25 mL/min, estimated dead time 0.88 min; A: water + 0.1% formic acid, pH 3; B: methanol + 0.1% formic acid, pH 3; gradient (min/%B) 0/5 5/5 25/95 25.1/100 35/100 35.1/5 45/5
# [6] = RP, Waters CORTECS T3, 100 × 2.1 mm, 2.7 µm, 0.15 mL/min, estimated dead time 1.5 min; A: water + 0.1% formic acid, pH 3; B: methanol + 0.1% formic acid, pH 3; gradient (min/%B) 0/5 5/5 25/95 25.1/100 35/100 35.1/5 45/5
# [7] = HILIC, Merck SeQuant ZIC-HILIC, 150 × 2.1 mm, 5 µm, 0.75 mL/min, estimated dead time 0.44 min; A: water + 10 mM ammonium formate, pH 6; B: 5% water + 95% acetonitrile + 10 mM ammonium formate, pH 6; gradient (min/%B) 0/95 5/95 20/57 25/57 30/95 40/95
# [8] = RP, Waters CORTECS T3, 100 × 2.1 mm, 2.7 µm, 0.3 mL/min, estimated dead time 0.73 min; A: water + 0.1% formic acid, pH 3; B: methanol + 0.1% formic acid, pH 3; gradient (min/%B) 0/0 5/0 25/100 30/100 30.1/0 35/0
# [9] = HILIC, Merck SeQuant ZIC-HILIC, 150 × 2.1 mm, 5 µm, 0.75 mL/min, estimated dead time 0.44 min; A: water + 0.1% acetic acid + 10 mM ammonium acetate, pH 4; B: 5% water + 95% acetonitrile + 0.1% acetic acid + 10 mM ammonium acetate, pH 4; gradient (min/%B) 0/95 5/95 20/57 25/57 30/95 40/95
# [10] = RP, Waters ACQUITY UPLC BEH C18, 100 × 2.1 mm, 1.7 µm, 0.2 mL/min, estimated dead time 1.1 min; A: water + 0.1% formic acid, pH 3; B: methanol + 0.1% formic acid, pH 3; gradient (min/%B) 0/5 5/5 25/100 30/100 30.1/5 35/5
# [11] = RP, Waters ACQUITY UPLC BEH C18, 100 × 2.1 mm, 1.7 µm, 0.2 mL/min, estimated dead time 1.1 min; A: water + 0.025% formic acid + 20 mM ammonium acetate + 0.055% ammonium hydroxide, pH 7; B: methanol; gradient (min/%B) 0/5 5/5 25/100 30/100 30.1/5 35/5
# [12] = RP, Waters CORTECS T3, 100 × 2.1 mm, 2.7 µm, 0.3 mL/min, estimated dead time 0.73 min; A: water + 0.1% formic acid, pH 3; B: methanol + 0.1% formic acid, pH 3; gradient (min/%B) 0/0 1/0 6/5 30/100 35/100 35.1/0 40/0
# [13] = RP, Waters CORTECS T3, 100 × 2.1 mm, 2.7 µm, 0.2 mL/min, estimated dead time 1.1 min; A: water + 0.1% formic acid, pH 3; B: methanol + 0.1% formic acid, pH 3; gradient (min/%B) 0/5 5/5 25/95 25.1/100 35/100 35.1/5 45/5
# [14] = RP, Waters ACQUITY UPLC BEH C18, 100 × 2.1 mm, 1.7 µm, 0.1 mL/min, estimated dead time 2.2 min; A: water + 0.1% formic acid, pH 3; B: methanol + 0.1% formic acid, pH 3; gradient (min/%B) 0/5 5/5 25/95 25.1/100 35/100 35.1/5 45/5; remark: listed apart in the source
# [15] = RP, Waters CORTECS T3, 100 × 2.1 mm, 2.7 µm, 0.2 mL/min, estimated dead time 1.1 min; A: water + 0.1% formic acid, pH 3; B: methanol + 0.1% formic acid, pH 3; gradient (min/%B) 0/0 1/0 6/5 30/100 35/100 35.1/0 40/0; remark: listed apart in the source
# [16] = RP, Waters CORTECS T3, 100 × 2.1 mm, 2.7 µm, 0.15 mL/min, estimated dead time 1.5 min; A: water + 0.1% formic acid, pH 3; B: methanol + 0.1% formic acid, pH 3; gradient (min/%B) 0/0 1/0 6/5 30/100 35/100 35.1/0 40/0
# [17] = RP, Waters CORTECS T3, 100 × 2.1 mm, 2.7 µm, 0.25 mL/min, estimated dead time 0.88 min; A: water + 0.1% formic acid, pH 3; B: methanol + 0.1% formic acid, pH 3; gradient (min/%B) 0/0 1/0 6/5 30/100 35/100 35.1/0 40/0
# [18] = RP, Waters ACQUITY UPLC BEH C18, 100 × 2.1 mm, 1.7 µm, 0.1 mL/min, estimated dead time 2.2 min; A: water + 0.1% formic acid, pH 3; B: methanol + 0.1% formic acid, pH 3; gradient (min/%B) 0/5 5/5 25/100 30/100 30.1/5 35/5
# [19] = RP, Waters CORTECS T3, 100 × 2.1 mm, 2.7 µm, 0.3 mL/min, estimated dead time 0.73 min; A: water + 0.1% formic acid, pH 3; B: methanol + 0.1% formic acid, pH 3; gradient (min/%B) 0/5 5/5 25/100 30/100 30.1/5 35/5
# [20] = RP, Waters CORTECS T3, 100 × 2.1 mm, 2.7 µm, 0.3 mL/min, estimated dead time 0.73 min; A: water + 0.1% formic acid, pH 3; B: methanol + 0.1% formic acid, pH 3; gradient (min/%B) 0/5 5/5 25/95 25.1/100 35/100 35.1/5 45/5
# [21] = RP, Waters CORTECS T3, 100 × 2.1 mm, 2.7 µm, 0.3 mL/min, estimated dead time 0.73 min; A: water + 0.1% formic acid, pH 3; B: methanol + 0.1% formic acid, pH 3; gradient (min/%B) 0/0 5/0 25/100 30/100 30.1/0 35/0; remark: listed apart in the source
# [22] = RP, Waters CORTECS T3, 100 × 2.1 mm, 2.7 µm, 0.1 mL/min, estimated dead time 2.2 min; A: water + 0.1% formic acid, pH 3; B: methanol + 0.1% formic acid, pH 3; gradient (min/%B) 0/0 1/0 6/5 30/100 35/100 35.1/0 40/0
# [23] = RP, Waters CORTECS T3, 100 × 2.1 mm, 2.7 µm, 0.2 mL/min, estimated dead time 1.1 min; A: water + 0.045% formic acid + 0.11% ammonium hydroxide, pH 7; B: methanol; gradient (min/%B) 0/5 5/5 25/95 25.1/100 35/100 35.1/5 45/5
# [24] = RP, Waters CORTECS T3, 100 × 2.1 mm, 2.7 µm, 0.3 mL/min, estimated dead time 0.73 min; A: water + 0.1% formic acid, pH 3; B: methanol + 0.1% formic acid, pH 3; gradient (min/%B) 0/0 1/0 6/5 30/100 35/100 35.1/0 40/0; remark: listed apart in the source
# [25] = RP, Waters ACQUITY UPLC BEH C18, 100 × 2.1 mm, 1.7 µm, 0.1 mL/min, estimated dead time 2.2 min; A: water + 0.045% formic acid + 0.11% ammonium hydroxide, pH 7; B: methanol; gradient (min/%B) 0/5 5/5 25/95 25.1/100 35/100 35.1/5 45/5
# [26] = RP, Waters ACQUITY UPLC BEH C18, 100 × 2.1 mm, 1.7 µm, 0.2 mL/min, estimated dead time 1.1 min; A: water + 0.025% formic acid + 20 mM ammonium acetate + 0.055% ammonium hydroxide, pH 7; B: methanol; gradient (min/%B) 0/5 5/5 25/100 30/100 30.1/5 35/5; remark: listed apart in the source
SMILES,LC retention time [2],LC retention time [3],LC retention time [4],LC retention time [5],LC retention time [6],LC retention time [7],LC retention time [8],LC retention time [9],LC retention time [10],LC retention time [11],LC retention time [12],LC retention time [13],LC retention time [14],LC retention time [17],LC retention time [18],further results
CC(=O)NC(CCC(=O)O)C(=O)O (racemic) [N-ACETYL-DL-GLUTAMIC ACID],4.43 min,3.1 min,13.6 min,1.77 min,2.89 min,14 min,2.22 min,13.6 min,2.27 min,1.36 min,2.22 min,–,–,–,–,LC retention time [1]: 24 min
NCCP(=O)(O)O [(2-AMINOETHYL)PHOSPHONATE],–,–,–,–,–,–,–,–,–,–,–,2.44 min,2.75 min,–,–,–
CN(CC(=O)O)C(N)=NP(=O)(O)O [CREATINE PHOSPHATE],–,–,–,–,–,–,–,–,–,–,–,–,3.05 min,–,–,–
Nc1nc2c(ncn2C2OC(CO)C(O)C2O)c(=O)[nH]1 (configuration not stated) [GUANOSINE],2.7 min,7.02 min,10.3 min,2.95 min,4.79 min,10.5 min,–,10.1 min,3.31 min,1.76 min,5.43 min,10.9 min,–,–,2.74 min,–
CC(=O)N[C@@H](Cc1ccccc1)C(=O)O [N-ACETYL-L-PHENYLALANINE],17.7 min,15.3 min,6.98 min,12.7 min,14.9 min,6.61 min,12.8 min,5.57 min,13.8 min,8.81 min,13.6 min,19 min,–,14.4 min,17.3 min,LC retention time [19]: 11.8 min; LC retention time [20]: 12 min; LC retention time [21]: 12.8 min; LC retention time [22]: 13.6 min; LC retention time [23]: 9.59 min; LC retention time [24]: 13.6 min; LC retention time [25]: 13.6 min
C[N+](C)(C)CCOP(=O)(O)O [PHOSPHOCHOLINE],–,–,–,–,–,–,–,–,–,–,–,–,2.66 min,–,–,LC retention time [1]: 4.81 min

# The next lines start with results.
LC retention time [2],LC retention time [3],LC retention time [4],LC retention time [5],LC retention time [6],LC retention time [7],LC retention time [8],LC retention time [9],LC retention time [10],LC retention time [11],LC retention time [12],LC retention time [13],LC retention time [14],LC retention time [17],LC retention time [18],SMILES,further results
–,–,–,–,–,–,–,–,–,–,–,–,2.72 min,1.09 min,–,C[N+](C)(C)CCOP(=O)(O)OP(=O)([O-])OCC1OC(n2ccc(N)nc2=O)C(O)C1O (configuration not stated) [CYTIDINE 5'-DIPHOSPHOCHOLINE],LC retention time [15]: 1.34 min; LC retention time [16]: 1.78 min
17.2 min,14.6 min,7.4 min,12 min,14.3 min,6.56 min,12.2 min,5.95 min,13.3 min,6.59 min,12.8 min,18.4 min,–,–,–,CC(=O)N[C@@H](CC(C)C)C(=O)O [N-ACETYL-L-LEUCINE],–
13.7 min,–,0.95 min,–,11.8 min,1.15 min,–,1.09 min,–,10.2 min,–,15.3 min,–,11.3 min,13.6 min,CC(=O)NCCc1c[nH]c2ccc(O)cc12 [N-ACETYLSEROTONIN],LC retention time [19]: 9.2 min; LC retention time [15]: 12.1 min; LC retention time [26]: 10.6 min; LC retention time [20]: 9.27 min; LC retention time [21]: 10.4 min; LC retention time [22]: 10.6 min; LC retention time [23]: 10.7 min; LC retention time [16]: 13.3 min; LC retention time [24]: 10.8 min; LC retention time [25]: 13.7 min
–,–,–,–,–,–,–,–,–,–,–,–,2.78 min,–,2.74 min,NC(=O)c1ccc[n+](C2OC(COP(=O)(O)OP(=O)(O)OCC3OC(n4cnc5c(N)ncnc54)C(O)C3O)C(O)C2O)c1 (configuration not stated) [NAD],–
